This is an account of results in publication PMC10623575, “Discovery of Potent and Selective CB2 Agonists Utilizing a Function-Based Computational Screening Protocol” (ACS Chemical Neuroscience, 2023).

SMILES strings stand for the structures. Read-outs that look alike come from different tables or passages of the source.

The target in one assay is T1, CB2 receptor (Homo sapiens, UniProt P34972).
T1 construct: expressed in transfected cells
Put plainly: Calcium mobilization assay, agonist mode, CHO expressing CB2 and Gα16. It counts as cell-based. As to conditions: for SI, selectivity index for the CB2, SI = EC50(CB1)/EC50(CB2): agonist mode; for CB1 and CB2 biological activity (in words): CB1 and CB2 calcium mobilization assays, up to 10 μM. Here is the method:
(§1) Chinese hamster ovarian (CHO) cells collected from the American Type Culture Collection were maintained in Ham’s F-12K (Kaighn’s) supplemented with 100 mg/L streptomycin, 100 mg/L penicillin, and 10% fetal bovine serum (FBS) in a humidified atmosphere of 5% CO2 at 37 °C. CHO cells were co-transfected with plasmids encoding CB1 or CB2 and Gα16 by electroporation. To establish stable cell lines, transfected cells were seeded on 10 cm dishes with 40 μg/mL blasticidin and 1 mg/mL G418 in culture medium after 24 h. The selection medium was substituted once every 3 days until colonies formed. A solitary colony was obtained, propagated, and assessed using a calcium mobilization assay to verify the function and expression of the transfected genes.
(§2) 3 × 10^4 cells/well were employed to seed cells onto 96-well plates, which were subsequently incubated throughout the night. […] For antagonist mode, the extra dye was washed out and 50 μL of HBSS with test compounds, DMSO (negative control), or AM630 (positive control) was introduced. […] To be noticed, each experiment has been independently replicated three times, with three repetitions and eight gradients each time.
(§3) The collected data were processed with GraphPad Prism software (GraphPad). […] Means ± SEM were computed utilizing this software. The analyses were evaluated by the Student t test. When the p value is smaller than 0.05, the result is statistically significant.
A general note: A change in cytosolic calcium serves as a functional read-out for many receptors and channels.

The next assay has as its target CB1 receptor (Homo sapiens, UniProt P21554). The experiment in a line: Calcium mobilization assay, agonist mode, CHO expressing CB1 and Gα16. The class given is cell-based. Here is the method: as §1, §2, §3
The mark [1] stands for this setting: agonist activity, CHO expressing CB2, three independent assays, mean ± SEM, read-out: CB2 EC50.
The mark [2] stands for this setting: single independent experiment, replicate 1, read-out: CB2 agonist(μM) replicate 1.
The mark [3] stands for this setting: single independent experiment, replicate 2, read-out: CB2 agonist(μM) replicate 2.
Where [4] appears, read: single independent experiment, replicate 3, read-out: CB2 agonist(μM) replicate3.
The mark [5] stands for this setting: agonist activity, CHO expressing CB1, mean ± SEM, read-out: CB1 EC50.

T1 sequence (P34972 whole entry): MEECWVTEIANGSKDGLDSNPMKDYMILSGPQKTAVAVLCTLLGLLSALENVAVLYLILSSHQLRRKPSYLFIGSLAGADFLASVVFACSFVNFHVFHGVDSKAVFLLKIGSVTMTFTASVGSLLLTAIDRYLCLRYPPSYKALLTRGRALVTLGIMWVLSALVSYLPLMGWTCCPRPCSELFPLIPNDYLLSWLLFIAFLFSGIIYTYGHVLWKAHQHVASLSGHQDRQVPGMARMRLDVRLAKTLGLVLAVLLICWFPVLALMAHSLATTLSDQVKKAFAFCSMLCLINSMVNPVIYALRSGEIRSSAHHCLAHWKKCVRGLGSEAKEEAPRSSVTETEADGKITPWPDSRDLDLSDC
Chain of CB1 receptor (P21554 whole entry): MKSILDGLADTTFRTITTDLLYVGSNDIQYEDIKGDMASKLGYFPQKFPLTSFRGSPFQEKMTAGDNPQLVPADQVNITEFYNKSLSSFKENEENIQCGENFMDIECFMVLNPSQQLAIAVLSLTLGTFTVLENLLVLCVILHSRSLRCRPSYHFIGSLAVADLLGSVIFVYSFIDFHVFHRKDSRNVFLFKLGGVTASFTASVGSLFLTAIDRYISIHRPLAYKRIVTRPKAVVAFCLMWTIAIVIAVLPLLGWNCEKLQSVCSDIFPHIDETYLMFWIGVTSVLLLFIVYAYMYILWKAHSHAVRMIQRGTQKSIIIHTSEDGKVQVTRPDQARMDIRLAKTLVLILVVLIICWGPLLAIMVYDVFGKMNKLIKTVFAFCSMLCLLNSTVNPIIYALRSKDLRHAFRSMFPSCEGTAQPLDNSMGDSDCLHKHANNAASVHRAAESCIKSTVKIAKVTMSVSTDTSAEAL

Regarding `CC(C)N1C(=O)SC(=Cc2ccccc2OCc2ccccc2C#N)C1=O` [Compound 1, 2-((2-((3-Isopropyl-2,4-dioxothiazolidin-5-ylidene)methyl)phenoxy)methyl) Benzonitrile], the “response against CHO–CB2 by calcium assay” value on CB2 receptor (10 μM) is recorded as more than 40%. For the same compound, the EC50 was 3.12 ± 2.22 µM at CB2 receptor (setting [1]); 1.75 µM at CB2 receptor (setting [2]); 7.47 µM on CB2 receptor (setting [3]); 0.139 µM at CB2 receptor (setting [4]); more than 10 µM at CB1 receptor (setting [5]). On CB2 receptor, the “SI, selectivity index for the CB2, SI = EC50(CB1)/EC50(CB2)” value (from here on “SI, selectivity index for the CB2”) is recorded as more than 3. Moreover, the “bioactivity against CB1 (in words)” value on CB1 receptor (10 μM) is recorded as “no bioactivity”.

`CC(C)CN1C(=O)SC(=Cc2ccccc2OCc2ccccc2C#N)C1=O` [Compound 2, 2-((2-((3-Isobutyl-2,4-dioxothiazolidin-5-ylidene)methyl)phenoxy)methyl) Benzonitrile]: the EC50 on CB2 receptor (setting [1]) is 3.22 ± 2.67 µM; on CB2 receptor (setting [2]), 0.43 µM; at CB2 receptor (setting [3]) it was 8.56 µM; at CB2 receptor (setting [4]) it was 0.68 µM; at CB1 receptor (setting [5]), more than 10 µM. Moreover, on CB2 receptor, the “SI, selectivity index for the CB2” value is listed as more than 3.

Regarding `CCCN1C(=O)SC(=Cc2ccccc2OCc2ccccc2C#N)C1=O` [Compound 3, 2-((2-((2,4-Dioxo-3-propylthiazolidin-5-ylidene)methyl)phenoxy)methyl) Benzo Nitrile], the EC50 on CB2 receptor (setting [1]) and on CB1 receptor (setting [5]) was more than 10 µM each time.

For `CCCCN1C(=O)SC(=Cc2ccccc2OCc2ccccc2C#N)C1=O` [Compound 4, 2-((2-((3-Butyl-2,4-dioxothiazolidin-5-ylidene)methyl)phenoxy)methyl)benzo Nitrile], the EC50 on CB2 receptor (setting [1]) and at CB1 receptor (setting [5]) was more than 10 µM throughout.

Regarding `N#Cc1ccccc1COc1ccccc1C=C1SC(=O)N(C2CCCC2)C1=O` [Compound 5, 2-((2-((3-Cyclopentyl-2,4-dioxothiazolidin-5-ylidene)methyl)phenoxy)methyl) Benzonitrile], the EC50 on CB2 receptor (setting [1]) is 2.26 ± 0.48 µM; on CB2 receptor (setting [2]) it was 1.67 µM; on CB2 receptor (setting [3]) it was 1.92 µM; on CB2 receptor (setting [4]), 3.2 µM; on CB1 receptor (setting [5]), more than 10 µM. Moreover, the “SI, selectivity index for the CB2” value at CB2 receptor is more than 4.

`CC(C)N1C(=O)SC(=Cc2ccccc2OCc2ccccc2F)C1=O` [Compound 6, 5-(2-((2-Fluorobenzyl)oxy)benzylidene)-3-isopropylthiazolidine-2,4-dione]: the EC50 at CB2 receptor (setting [1]) is 0.37 ± 0.26 µM; on CB2 receptor (setting [2]), 0.188 µM; at CB2 receptor (setting [3]), 0.026 µM; on CB2 receptor (setting [4]) it was 0.886 µM; at CB1 receptor (setting [5]), more than 10 µM. Besides, at CB2 receptor, the “SI, selectivity index for the CB2” value is reported as more than 27.

For `CC(C)N1C(=O)SC(=Cc2ccccc2OCc2cccc(Br)c2)C1=O` [Compound 7, 5-(2-((3-Bromobenzyl)oxy)benzylidene)-3-isopropylthiazolidine-2,4-dione], the “CB1 and CB2 biological activity (in words)” value at CB2 receptor is “do not show biological activities”. Further, the EC50 at CB2 receptor (setting [1]) and on CB1 receptor (setting [5]) was more than 10 µM throughout.

For the compound `CC(C)N1C(=O)SC(=Cc2ccccc2OCCN2CCOCC2)C1=O` [Compound 8, 3-Isopropyl-5-(2-(2-morpholinoethoxy)benzylidene) Thiazolidine-2,4-dione], the EC50 on CB2 receptor (CB2 EC50, agonist activity, CHO expressing CB2, three independent assays, mean ± SEM) is 0.09 ± 0.07 µM; on CB2 receptor (CB2 agonist(μM) replicate 1, single independent experiment, replicate 1), 0.227 µM; at CB2 receptor (CB2 agonist(μM) replicate 2, single independent experiment, replicate 2), 0.026 µM; at CB2 receptor (CB2 agonist(μM) replicate3, single independent experiment, replicate 3), 0.022 µM; at CB1 receptor (CB1 EC50, agonist activity, CHO expressing CB1, mean ± SEM), 0.75 ± 0.48 µM; on CB1 receptor (CB1 agonist(μM) replicate 1, single independent experiment, replicate 1), 0.455 µM. In addition, the EC50 on CB1 receptor (CB1 agonist(μM) replicate 2, single independent experiment, replicate 2) was found to be 0.109 µM; on CB1 receptor (CB1 agonist(μM) replicate3, single independent experiment, replicate 3) it was 1.7 µM. In addition, on CB2 receptor, the “SI, selectivity index for the CB2” value was 8.

As to `COc1cc(COc2ccccc2C=C2SC(=O)N(C(C)C)C2=O)cc(OC)c1` [Compound 9, 5-(2-((3,5-Dimethoxybenzyl)oxy)benzylidene)-3-isopropylthiazolidine-2,4-dione], the “CB1 and CB2 biological activity (in words)” value on CB2 receptor was “do not show biological activities”. Also, the EC50 on CB2 receptor (setting [1]) and on CB1 receptor (setting [5]) was more than 10 µM in each case.

`CC(C)CN1C(=O)SC(=Cc2ccccc2OCc2ccccc2F)C1=O` [Compound 10, 5-(2-((2-Fluorobenzyl)oxy)benzylidene)-3-isobutylthiazolidine-2,4-dione]: the EC50 on CB2 receptor (setting [1]) is 1.6 ± 0.21 µM; at CB2 receptor (setting [2]) it was 1.78 µM; on CB2 receptor (setting [3]), 1.18 µM; at CB2 receptor (setting [4]) it was 1.83 µM; on CB1 receptor (setting [5]), more than 10 µM. The “SI, selectivity index for the CB2” value at CB2 receptor is on record as more than 6.

As to `COc1cc(COc2ccccc2C=C2SC(=O)N(CC(C)C)C2=O)cc(OC)c1` [Compound 11, 5-(2-((3,5-Dimethoxybenzyl)oxy)benzylidene)-3-isobutylthiazolidine-2,4-dione], the EC50 at CB2 receptor (setting [1]) and at CB1 receptor (setting [5]) was more than 10 µM throughout.

In the case of `O=C1SC(=Cc2ccccc2OCc2ccccc2F)C(=O)N1C1CCCC1` [Compound 12, 3-Cyclopentyl-5-(2-((2-fluorobenzyl)oxy)benzylidene)thiazolidine-2,4-dione], the “CB1 and CB2 biological activity (in words)” value on CB2 receptor is given as “no bioactivity”. In addition, the EC50 on CB2 receptor (setting [1]) and on CB1 receptor (setting [5]) was more than 10 µM each time.

On to `CC(C)CN1C(=O)SC(=Cc2ccccc2OC(=O)c2ccccc2F)C1=O` [Compound 13, 2-((3-Isobutyl-2,4-dioxothiazolidin-5-ylidene)methyl)phenyl 2-Fluorobenzoate], for which the EC50 was 1.78 ± 0.25 µM on CB2 receptor (setting [1]); 1.66 µM at CB2 receptor (setting [2]); 2.26 µM on CB2 receptor (setting [3]); 1.44 µM on CB2 receptor (setting [4]); more than 10 µM at CB1 receptor (setting [5]). In addition, the “SI, selectivity index for the CB2” value at CB2 receptor is more than 5.

Regarding `CCCCCCCC(=O)Oc1ccccc1C=C1SC(=O)N(CC(C)C)C1=O` [Compound 14, 2-((3-Isobutyl-2,4-dioxothiazolidin-5-ylidene)methyl) Phenyl Octanoate], the EC50 at CB2 receptor (setting [1]) and at CB1 receptor (setting [5]) was more than 10 µM each time.

Take `CC(C)CN1C(=O)SC(=Cc2ccccc2OC(=O)N2CCOCC2)C1=O` [Compound 15, 2-((3-Isobutyl-2,4-dioxothiazolidin-5-ylidene)methyl)phenyl Morpholine-4-carboxylate]: the EC50 at CB2 receptor (setting [1]) was 1.58 ± 1.12 µM; on CB2 receptor (setting [2]), 0.486 µM; on CB2 receptor (setting [3]), 3.82 µM; at CB2 receptor (setting [4]), 0.43 µM; on CB1 receptor (setting [5]), more than 10 µM. For the same compound, on CB2 receptor, the “SI, selectivity index for the CB2” value is listed as more than 6.

Consider `CC(C)CN1C(=O)S/C(=C\c2ccccc2OC(=O)C(C)(C)CCl)C1=O` [Compound 16, 2-((3-Isobutyl-2,4-dioxothiazolidin-5-ylidene)methyl) Phenyl 3-Chloro-2,2-dimethylpropanoate], for which the EC50 is 1.51 ± 0.29 µM at CB2 receptor (setting [1]); 0.949 µM on CB2 receptor (setting [2]); 1.89 µM at CB2 receptor (setting [3]); 1.69 µM at CB2 receptor (setting [4]); more than 10 µM at CB1 receptor (setting [5]). Further, at CB2 receptor, the “SI, selectivity index for the CB2” value is on record as more than 6.

`CC(C)N1C(=O)SC(=Cc2ccccc2OC(=O)N2CCOCC2)C1=O` [Compound 17, 2-((3-Isopropyl-2,4-dioxothiazolidin-5-ylidene)methyl)phenyl Morpholine-4-carboxylate]: the EC50 at CB2 receptor (setting [1]) was 0.66 ± 0.34 µM; at CB2 receptor (setting [2]), 0.166 µM; at CB2 receptor (setting [3]) it was 1.31 µM; at CB2 receptor (setting [4]) it was 0.489 µM; on CB1 receptor (setting [5]) it was more than 10 µM. Also, the “SI, selectivity index for the CB2” value at CB2 receptor is on record as more than 15.

In the case of `CC(C)N1C(=O)S/C(=C\c2ccccc2OC(=O)c2ccccc2F)C1=O` [Compound 18, 2-((3-Isopropyl-2,4-dioxothiazolidin-5-ylidene)methyl) Phenyl 2-Fluoro Benzoate], the EC50 on CB2 receptor (setting [1]) is 3.64 ± 1.14 µM; on CB2 receptor (setting [2]), 4.96 µM; at CB2 receptor (setting [3]), 4.58 µM; on CB2 receptor (setting [4]) it was 1.38 µM; at CB1 receptor (setting [5]), more than 10 µM. The “SI, selectivity index for the CB2” value on CB2 receptor is recorded as more than 2.

As to `CC(C)N1C(=O)S/C(=C\c2ccccc2OC(=O)C23CC4CC(CC(C4)C2)C3)C1=O` [Compound 19, 2-((3-Isopropyl-2,4-dioxothiazolidin-5-ylidene) Methyl) Phenyl (3r,5r,7r)-Adamantane-1-carboxylate], the EC50 at CB2 receptor (setting [1]) and at CB1 receptor (setting [5]) was more than 10 µM throughout.

As for `CCCCCCCC(=O)Oc1ccccc1/C=C1\SC(=O)N(C(C)C)C1=O` [Compound 20, 2-((3-Isopropyl-2,4-dioxothiazolidin-5-ylidene) Methyl) Phenyl Octanoate], the EC50 at CB2 receptor (setting [1]) and at CB1 receptor (setting [5]) was more than 10 µM throughout.

For `CC(C)N1C(=O)SC(=Cc2ccccc2OC(=O)C(C)(C)CCl)C1=O` [Compound 21, 2-((3-Isopropyl-2,4-dioxothiazolidin-5-ylidene)methyl)phenyl 3-Chloro-2,2-dimethylpropanoate], the EC50 was 2.33 ± 0.45 µM at CB2 receptor (setting [1]); 1.46 µM at CB2 receptor (setting [2]); 2.61 µM at CB2 receptor (setting [3]); 2.93 µM at CB2 receptor (setting [4]); more than 10 µM at CB1 receptor (setting [5]). For the same compound, the “SI, selectivity index for the CB2” value on CB2 receptor is reported as more than 4.
